Consider two compounds from article PMC6008489 (Bioorganic & Medicinal Chemistry, 2018).

Experiment [1] concerns the target T1, AKT2 (Homo sapiens, UniProt P31751).
T1 construct: purchased Perkin Elmer ProfilerPro assay kit 1
In words: 26-kinase panel mobility shift assay, single concentration. The class given is biochemical. The conditions noted are these: read-out: % Inhibition AKT2.
Procedure: (§1) In order to test the biochemical activity of our fragment library, a panel of 26 structurally diverse protein kinases was used.
(§2) Screening of 26 kinases using a mobility shift assay
(§3) A mobility shift assay to determine kinase inhibition was carried out using a
(§4) modified version of the ProfilerPro assay kit 1 (Perkin Elmer, Coventry, UK)
(§5) including MPS1 and Aurora B. Each kit contained an enzyme plate, a substrate
(§6) plate, reconstitution buffer, 1 M DTT, protease inhibitor cocktail and termination
(§7) buffer. Test compounds were added as a solution in DMSO.
(§8) peptide phosphorylation assay was carried out as per the manufacturer’s
(§9) instructions. The electrophoretic separation and analysis of the phosphorylated
(§10) and non-phosphorylated peptides was carried out on a 4-sipper chip using a
(§11) LabChip EZReader II (Perkin Elmer). Results were expressed as % inhibition of
(§12) peptide phosphorylation relative to control wells for 0 % (no test compound) and
(§13) 100 % (no ATP) inhibition. The percentage inhibition was calculated using the
(§14) % Inhibition = [1 - (% Conversion Sample / % Conversion 0% Inhibition Control)] x 100

The target of experiment [2] is T2, Erk2 (Homo sapiens, UniProt P28482).
T2 construct: purchased Perkin Elmer (ProfilerPro assay kit 1)
Described as above. The class given is biochemical. The conditions noted are these: read-out: % Inhibition Erk2.
Procedure: as §3, §4, §5, §6, §7, §8, §9, §10, §11, §12, §13, §14

The target in experiment [3] is T3, PKA (Homo sapiens, UniProt P17612).
T3 construct: purchased Perkin Elmer (ProfilerPro assay kit 1)
Described as above. The format is biochemical. The settings on record: read-out: % Inhibition PKA.
Procedure: as §1
Mobility Shift Assay Protocol
as §2, §3, §4, §5, §6, §7
final concentration. […] The
as §8, §9, §10, §11, §12, §13, §14

Experiment [4] addresses T4, MSK1 (Homo sapiens, UniProt O75582).
T4 construct: purchased Perkin Elmer (ProfilerPro assay kit 1)
The description is as above. The class given is biochemical. The settings on record: read-out: % Inhibition MSK1.
Procedure: as §1
Mobility Shift Assay Protocol
as §2, §3, §4, §5, §6, §7
final concentration. […] The
as §8, §9, §10, §11, §12, §13, §14

The target in experiment [5] is T5, MAPKAPK2 (Homo sapiens, UniProt P49137).
T5 construct: purchased Perkin Elmer (ProfilerPro assay kit 1)
The description is as above. The conditions noted are these: read-out: % Inhibition MAPKAPK2. The class given is biochemical.
Procedure: as §3, §4, §5, §6, §7, §8, §9, §10, §11, §12, §13, §14

The target of experiment [6] is T6, MET (Homo sapiens, UniProt P08581).
T6 construct: purchased Perkin Elmer (ProfilerPro assay kit 1)
The experiment is described as above. The conditions noted are these: read-out: % Inhibition MET. The class given is biochemical.
Procedure: as §1
Mobility Shift Assay Protocol
as §2, §3, §4, §5, §6, §7
final concentration. […] The
as §8, §9, §10, §11, §12, §13, §14

For experiment [7], the target named is T7, RSK1 (Homo sapiens, UniProt Q15418).
T7 construct: purchased Perkin Elmer (ProfilerPro assay kit 1)
Described as above. The format is biochemical. The conditions noted are these: read-out: % Inhibition RSK1.
Procedure: Mobility Shift Assay Protocol
as §2, §3, §4, §5, §6, §7, §8, §9, §10, §11, §12, §13, §14

Experiment [8] addresses Aurora B (Homo sapiens, UniProt Q96GD4). The format is biochemical. The settings on record: for pKi: calculated from mean IC50 using the Cheng-Prusoff equation, read-out: AurB Ki; for AurB ligand efficiency (LE): from Ki.
Procedure: (§15) IC50 values were obtained for an expanded version of the fragment library using the previously described mobility shift assay.[44] Subsequently, Ki values were estimated from IC50 values to allow better comparison of the activity against targets which were measured at different substrate concentrations (Supplementary data Table 1).
(§16) IC50 values for MPS1, Aurora A and Aurora B inhibition were determined as previously described,[44] and Ki values were estimated from the mean IC50 values using the Cheng-Prusoff equation.[48]
(§17) Kinase [ATP] (M) [Enzyme] (nM) [Peptide Substrate] (M) MgCl2 (mM)
(§18) For all compounds, IC50 values for MPS1, Aurora A, and Aurora B were determined
(§19) using MPS1 and Aurora A/B mobility shift assays as described previously.1 IC50
(§20) values were calculated from a four-parameter logistic fit of percentage inhibition
(§21) versus concentration (at 8 compound concentrations) using GraphPad Prism 5
(§22) (GraphPad Software, Inc., CA, USA). Mean IC50 values were determined from two
(§23) independent measurements each carried out in duplicate. Ki values were estimated
(§24) from the mean IC50 values using the Cheng-Prusoff equation.
In experiment [9] the target is T8, PKD2 (Homo sapiens, UniProt Q9BZL6).
T8 construct: purchased Perkin Elmer (ProfilerPro assay kit 1)
T8 sequence (Q9BZL6 1-878): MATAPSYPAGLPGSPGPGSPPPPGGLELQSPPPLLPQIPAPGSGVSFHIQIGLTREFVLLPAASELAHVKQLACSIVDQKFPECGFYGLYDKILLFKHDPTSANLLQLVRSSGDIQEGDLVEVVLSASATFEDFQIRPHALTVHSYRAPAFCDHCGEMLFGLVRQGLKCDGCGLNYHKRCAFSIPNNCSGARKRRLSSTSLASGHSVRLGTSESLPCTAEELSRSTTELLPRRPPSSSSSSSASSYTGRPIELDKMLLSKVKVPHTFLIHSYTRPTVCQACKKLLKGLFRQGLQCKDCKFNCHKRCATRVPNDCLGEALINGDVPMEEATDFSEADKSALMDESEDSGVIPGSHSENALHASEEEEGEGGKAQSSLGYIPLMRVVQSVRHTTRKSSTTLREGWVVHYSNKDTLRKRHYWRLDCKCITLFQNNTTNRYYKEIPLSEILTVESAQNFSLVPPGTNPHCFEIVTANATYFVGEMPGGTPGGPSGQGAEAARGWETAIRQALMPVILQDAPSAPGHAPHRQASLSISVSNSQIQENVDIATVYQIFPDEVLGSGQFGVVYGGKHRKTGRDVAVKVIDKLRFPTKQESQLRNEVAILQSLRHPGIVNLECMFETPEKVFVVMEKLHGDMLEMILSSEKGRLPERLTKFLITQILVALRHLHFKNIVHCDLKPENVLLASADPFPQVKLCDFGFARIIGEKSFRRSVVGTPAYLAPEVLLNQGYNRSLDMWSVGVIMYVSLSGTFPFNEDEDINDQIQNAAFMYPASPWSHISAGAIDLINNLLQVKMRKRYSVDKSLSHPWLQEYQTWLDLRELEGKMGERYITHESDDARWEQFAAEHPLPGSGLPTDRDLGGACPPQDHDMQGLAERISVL
Briefly: 26-kinase panel mobility shift assay, single concentration. The class given is biochemical. The conditions noted are these: read-out: % Inhibition PKD2.
Procedure: as §1, §2, §3, §4, §5, §6, §7, §8, §9, §10, §11, §12, §13, §14

The target of experiment [10] is T9, FYN (Homo sapiens, UniProt P06241).
T9 construct: purchased Perkin Elmer (ProfilerPro assay kit 1)
The experiment is described as above. The class given is biochemical. The settings on record: read-out: % Inhibition FYN.
Procedure: as §3, §4, §5, §6, §7, §8, §9, §10, §11, §12, §13, §14

The target of experiment [11] is T10, MPS1 (Homo sapiens, UniProt P33981).
T10 sequence (P33981 1-857): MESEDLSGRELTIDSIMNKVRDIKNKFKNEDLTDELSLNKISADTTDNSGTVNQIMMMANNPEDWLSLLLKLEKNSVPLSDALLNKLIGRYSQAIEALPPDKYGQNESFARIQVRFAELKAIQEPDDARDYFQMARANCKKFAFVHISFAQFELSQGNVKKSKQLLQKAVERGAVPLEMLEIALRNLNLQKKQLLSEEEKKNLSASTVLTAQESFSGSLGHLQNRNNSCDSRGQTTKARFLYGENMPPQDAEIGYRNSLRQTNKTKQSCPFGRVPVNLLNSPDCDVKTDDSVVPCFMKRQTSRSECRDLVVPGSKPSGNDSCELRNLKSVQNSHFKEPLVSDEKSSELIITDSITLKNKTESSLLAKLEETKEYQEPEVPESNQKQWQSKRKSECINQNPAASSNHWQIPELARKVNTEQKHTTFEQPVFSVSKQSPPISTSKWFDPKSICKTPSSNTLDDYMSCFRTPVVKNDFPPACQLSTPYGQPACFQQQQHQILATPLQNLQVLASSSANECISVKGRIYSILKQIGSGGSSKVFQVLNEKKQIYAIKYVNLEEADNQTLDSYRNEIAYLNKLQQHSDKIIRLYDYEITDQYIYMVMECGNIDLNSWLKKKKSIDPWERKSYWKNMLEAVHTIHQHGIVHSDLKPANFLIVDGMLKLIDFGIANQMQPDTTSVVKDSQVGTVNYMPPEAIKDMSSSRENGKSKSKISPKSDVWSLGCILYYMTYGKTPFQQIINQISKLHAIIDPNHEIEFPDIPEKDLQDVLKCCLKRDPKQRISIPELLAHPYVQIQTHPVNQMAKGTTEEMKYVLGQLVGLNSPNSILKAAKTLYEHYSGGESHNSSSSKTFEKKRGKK
Briefly: biochemical. The conditions noted are these: read-out: % Inhibition MPS1.
Procedure: as §1, §2, §3, §4, §5, §6, §7, §8, §9, §10, §11, §12, §13, §14

The target of experiment [12] is T10, MPS1. The format is biochemical. The conditions noted are these: for pKi: calculated from mean IC50 using the Cheng-Prusoff equation; for MPS1 ligand efficiency (LE): from Ki.
Procedure: as §15, §16, §17, §18, §19, §20, §21, §22, §23, §24
The target of experiment [13] is AurB (Homo sapiens, UniProt Q96GD4). Briefly: 26-kinase panel mobility shift assay, single concentration. The class given is biochemical. The conditions noted are these: read-out: % Inhibition AurB.
Procedure: Mobility Shift Assay Protocol
as §2, §3, §4, §5, §6, §7, §8, §9, §10, §11, §12, §13, §14

The structures appear in SMILES notation. pKi: −log10 of the molar value.
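For AurB Ki in this document: aurora B inhibition measured in a mobility shift assay, underlying mean IC50 taken from two independent duplicate runs at 8 compound concentrations.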
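For AurB ligand efficiency (LE) in this document: aurora B inhibition measured in a mobility shift assay, underlying mean IC50 taken from two independent duplicate runs at 8 compound concentrations.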

Aurora B, sequence (Q96GD4 whole entry): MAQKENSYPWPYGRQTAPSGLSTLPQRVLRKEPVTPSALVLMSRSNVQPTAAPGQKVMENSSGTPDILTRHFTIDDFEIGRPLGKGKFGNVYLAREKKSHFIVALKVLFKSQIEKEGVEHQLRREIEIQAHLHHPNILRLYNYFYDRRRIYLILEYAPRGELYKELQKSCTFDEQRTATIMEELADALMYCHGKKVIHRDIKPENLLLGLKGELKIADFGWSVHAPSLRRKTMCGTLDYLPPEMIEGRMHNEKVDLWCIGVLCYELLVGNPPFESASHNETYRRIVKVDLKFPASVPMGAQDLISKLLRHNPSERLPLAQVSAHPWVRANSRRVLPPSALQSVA
T2 sequence (P28482 whole entry): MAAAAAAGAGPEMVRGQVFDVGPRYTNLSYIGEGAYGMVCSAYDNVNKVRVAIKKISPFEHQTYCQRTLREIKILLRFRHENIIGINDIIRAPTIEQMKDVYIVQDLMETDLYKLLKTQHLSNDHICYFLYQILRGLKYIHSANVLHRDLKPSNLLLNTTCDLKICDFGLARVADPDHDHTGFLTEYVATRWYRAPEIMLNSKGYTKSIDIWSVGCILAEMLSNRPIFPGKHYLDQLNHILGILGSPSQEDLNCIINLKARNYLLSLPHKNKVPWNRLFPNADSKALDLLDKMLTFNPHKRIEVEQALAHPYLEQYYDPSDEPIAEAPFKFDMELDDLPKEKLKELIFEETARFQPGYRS
T1 sequence (P31751 whole entry): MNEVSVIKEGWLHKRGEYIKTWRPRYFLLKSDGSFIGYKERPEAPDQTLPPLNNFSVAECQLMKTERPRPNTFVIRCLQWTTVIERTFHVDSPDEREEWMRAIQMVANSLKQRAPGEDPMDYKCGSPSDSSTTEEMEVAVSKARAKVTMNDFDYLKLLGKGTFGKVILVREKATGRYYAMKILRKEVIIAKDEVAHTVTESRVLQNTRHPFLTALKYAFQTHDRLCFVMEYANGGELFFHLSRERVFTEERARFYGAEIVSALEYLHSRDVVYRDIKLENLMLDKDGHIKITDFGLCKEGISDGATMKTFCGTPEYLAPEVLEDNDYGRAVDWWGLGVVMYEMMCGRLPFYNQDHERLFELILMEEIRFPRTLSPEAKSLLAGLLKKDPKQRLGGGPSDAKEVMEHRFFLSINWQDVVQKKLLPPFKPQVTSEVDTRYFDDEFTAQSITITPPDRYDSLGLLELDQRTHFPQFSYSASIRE
AurB, sequence (Q96GD4 whole entry): as the sequence (Q96GD4 whole entry) above
T7 sequence (Q15418 whole entry): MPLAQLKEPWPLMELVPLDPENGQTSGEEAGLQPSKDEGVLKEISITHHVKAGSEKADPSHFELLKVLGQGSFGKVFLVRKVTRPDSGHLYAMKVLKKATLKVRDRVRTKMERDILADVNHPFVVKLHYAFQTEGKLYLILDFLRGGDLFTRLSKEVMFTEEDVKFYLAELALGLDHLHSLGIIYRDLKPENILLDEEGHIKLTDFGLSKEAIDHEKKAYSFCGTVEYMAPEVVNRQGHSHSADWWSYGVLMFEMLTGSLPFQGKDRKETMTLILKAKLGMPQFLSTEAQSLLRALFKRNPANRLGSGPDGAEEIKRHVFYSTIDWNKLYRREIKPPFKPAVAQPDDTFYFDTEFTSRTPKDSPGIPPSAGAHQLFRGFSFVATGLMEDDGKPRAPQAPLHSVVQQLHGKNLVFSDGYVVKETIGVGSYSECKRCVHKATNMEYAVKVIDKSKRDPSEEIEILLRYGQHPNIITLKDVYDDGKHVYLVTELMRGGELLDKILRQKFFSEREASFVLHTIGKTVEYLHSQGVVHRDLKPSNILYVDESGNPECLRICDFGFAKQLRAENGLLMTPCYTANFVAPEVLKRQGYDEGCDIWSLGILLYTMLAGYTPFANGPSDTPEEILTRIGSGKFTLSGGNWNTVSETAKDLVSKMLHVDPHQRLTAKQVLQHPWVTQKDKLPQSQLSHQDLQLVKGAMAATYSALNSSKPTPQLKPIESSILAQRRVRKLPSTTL
T9 sequence (P06241 whole entry): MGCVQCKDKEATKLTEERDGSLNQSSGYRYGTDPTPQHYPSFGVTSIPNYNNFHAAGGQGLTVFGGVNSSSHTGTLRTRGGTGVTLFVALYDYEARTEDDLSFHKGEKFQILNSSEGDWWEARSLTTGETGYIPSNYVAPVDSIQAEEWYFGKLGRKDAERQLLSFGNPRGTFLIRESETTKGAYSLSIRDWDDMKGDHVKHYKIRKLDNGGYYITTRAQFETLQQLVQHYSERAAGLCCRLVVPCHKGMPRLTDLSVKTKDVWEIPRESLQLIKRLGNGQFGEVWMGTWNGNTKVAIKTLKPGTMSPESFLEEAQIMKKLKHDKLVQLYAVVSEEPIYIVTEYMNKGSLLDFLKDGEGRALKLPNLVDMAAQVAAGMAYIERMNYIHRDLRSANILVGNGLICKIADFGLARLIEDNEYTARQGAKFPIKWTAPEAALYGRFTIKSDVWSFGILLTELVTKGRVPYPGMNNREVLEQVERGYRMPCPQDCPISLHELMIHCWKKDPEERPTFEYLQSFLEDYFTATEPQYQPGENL
T5 sequence (P49137 whole entry): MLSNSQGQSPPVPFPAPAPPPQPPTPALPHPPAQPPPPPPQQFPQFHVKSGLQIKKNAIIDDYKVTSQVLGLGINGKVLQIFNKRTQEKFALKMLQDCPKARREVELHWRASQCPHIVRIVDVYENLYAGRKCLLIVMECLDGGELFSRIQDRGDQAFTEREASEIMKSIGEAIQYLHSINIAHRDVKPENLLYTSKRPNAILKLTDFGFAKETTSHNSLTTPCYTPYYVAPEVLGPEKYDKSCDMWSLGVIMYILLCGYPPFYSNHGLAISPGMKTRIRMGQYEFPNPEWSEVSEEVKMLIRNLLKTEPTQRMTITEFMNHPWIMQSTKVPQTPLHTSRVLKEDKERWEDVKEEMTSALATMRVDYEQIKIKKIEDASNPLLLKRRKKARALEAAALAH
T4 sequence (O75582 whole entry): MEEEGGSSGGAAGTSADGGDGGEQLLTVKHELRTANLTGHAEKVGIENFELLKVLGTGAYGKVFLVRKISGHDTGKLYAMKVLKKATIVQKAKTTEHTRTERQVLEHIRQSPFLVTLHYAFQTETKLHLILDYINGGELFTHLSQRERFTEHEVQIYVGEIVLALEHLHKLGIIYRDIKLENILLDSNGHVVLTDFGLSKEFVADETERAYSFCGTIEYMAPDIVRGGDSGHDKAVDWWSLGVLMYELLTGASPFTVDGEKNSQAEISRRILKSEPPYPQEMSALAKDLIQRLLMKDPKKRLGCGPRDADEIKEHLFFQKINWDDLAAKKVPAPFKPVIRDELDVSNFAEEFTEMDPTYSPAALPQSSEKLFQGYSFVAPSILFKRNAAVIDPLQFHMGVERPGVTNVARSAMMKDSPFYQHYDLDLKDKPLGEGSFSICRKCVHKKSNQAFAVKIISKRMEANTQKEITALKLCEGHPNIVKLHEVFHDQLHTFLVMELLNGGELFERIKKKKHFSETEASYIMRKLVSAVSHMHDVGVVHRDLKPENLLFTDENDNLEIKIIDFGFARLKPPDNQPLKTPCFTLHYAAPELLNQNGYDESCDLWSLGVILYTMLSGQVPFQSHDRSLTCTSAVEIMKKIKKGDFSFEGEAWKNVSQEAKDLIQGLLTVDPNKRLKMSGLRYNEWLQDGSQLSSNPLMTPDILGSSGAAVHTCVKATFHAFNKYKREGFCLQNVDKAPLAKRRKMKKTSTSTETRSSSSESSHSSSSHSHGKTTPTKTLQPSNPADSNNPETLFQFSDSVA

Broadly, the inhibition is the drop in the measured response relative to a control, in per cent. One may read the pKi as the Ki on a negative log10 scale, so that one unit is a factor of ten. For the compound `CN1CCN(c2ccc(C(=O)Nc3cc(-c4ccncc4)c[nH]c3=O)cc2)CC1` [Compound 22], the inhibition at 30 µM was determined as 13% in experiment [1]; 1% in experiment [2]; 0% in experiment [3]; 8% in experiment [4]; 12% in experiment [5]; 24% in [6]. Further, the inhibition at 30 µM in experiment [7] came out at 41%; in experiment [9], 46%; in experiment [10], 95%; in experiment [11], 88%; in experiment [13] it was 71%. The pKi in experiment [8] was 5.26; in [12] it was 5.32. The “AurB ligand efficiency (LE)” value in experiment [8] stood at 0.25. Moreover, the “MPS1 ligand efficiency (LE)” value in experiment [12] was 0.25.

`Nc1cc(-c2ccnc(NC3CC3)n2)c[nH]c1=O` [Compound 8]: the inhibition at 100 µM came out at 18% in [1]; 45% in [2]; 8% in experiment [3]; 27% in experiment [4]; 28% in [5]; 26% in experiment [6]. The inhibition at 100 µM amounted to 89% in experiment [7]; 81% in experiment [9]; 51% in experiment [10]; 87% in [11] (compound at 100 µM); 79% in experiment [13]. Also, the negative-log Ki (pKi) in experiment [8] is 4.92; in [12] it was 4.96. For the same compound, the “AurB ligand efficiency (LE)” value in experiment [8] came to 0.37. For the same compound, the “MPS1 ligand efficiency (LE)” value in experiment [12] worked out at 0.37.
